From BigSolDB 2.1

CN1C(C(=O)Nc2ccccn2)=C(O)c2sc(Cl)cc2S1(=O)=O
Details	solubility (mole fraction)
in PEG-400, 298.15 K	0.00861
in PEG-400, 303.15 K	0.0099
in PEG-400, 308.15 K	0.0112
in PEG-400, 313.15 K	0.013
in PEG-400, 323.15 K	0.0171

in water
Details	solubility (mole fraction)
298.15 K	2.9e-06
303.15 K	4.11e-06
308.15 K	5.62e-06
313.15 K	7.41e-06
323.15 K	1.2e-05
